Data taken from patent US20100274500A1, “METHOD AND SYSTEM FOR MEASURING MEMBRANE POTENTIAL BASED ON FLUORESCENCE POLARIZATION” (Seng Enterprises Ltd., priority 2006, published 2010).
Several values for one entry are separate records, joined by “and”; a condition that tells them apart may be missing. Equal entries are not always repeated.

Columns and labels:
U937 promonocytic cells [1] = assay: Fluorescence polarization measurements in U937 cells stained with Rh123; assay type: cell-based; details: for Mean Polarization: average based on 300 U937 cells stained with Rh123; for Mean Polarization / Mean FP, Left Cell / Mean FP, Right Cell: CCCP 5 μM or Nigericin 5 μg/ml, 15 minutes; for Mean FP, Left Cell / Mean FP, Right Cell: overall polarization of the entire cell, U937 stained with Rh123
Experimental: Fluorescence polarization (FP) evaluation was conducted using U937 promonocytic cells under the following physiological conditions: control, following treatment with CCCP and following treatment with Nigericin. All the cells were stained with Rh123, rinsed, loaded in cell chips and then measured. Cell treatment: U937 promonocytic cells were treated with an oxidative phosphorylation uncoupler CCCP (commercially available from Sigma-Aldrich) at a concentration of 5 μM and Nigericin (commercially available from Sigma-Aldrich) at 5 μg/ml for 15 minutes. Cell staining: Cells were stained by treating with […] Rh123 and loaded in cell chips. Fluorescence polarization measurement: Transmitted light images and fluorescence images were obtained parallel to the excitation field (excitation and emission polarizers set at 0°), and perpendicular to it, with the excitation polarizer set at 0°, and the emission polarizer set at 90°. From every pair of parallel and perpendicular images, the FP value was calculated for each pixel, using the following equation and a polarization map was created according to the following equation: In order to obtain a calibration reference point, the polarization value was obtained from the entire cell. […] Accordingly, a cell chip was used which allowed defining the borders of the cell by means of images of the cell received through transmitted light photographs. The borders were projected on the polarization map and the FP average was calculated for each cell. This process was implemented to evaluate all the cells, and a general average was obtained for each given physiological state.

U937 promonocytic cells [2] = assay: Fluorescence lifetime measurements in U937 cells stained with Rh123; assay type: cell-based; details: for f1(weight) / α1(decay) / τ1(lifetime): long lifetime component (attributed to cytoplasm); for f2(weight) / α2(decay) / τ2(lifetime): short lifetime component (attributed to mitochondria); for fluorescence signal from the probe located in the mitochondria: weight of the short decay component
Experimental: Cell treatment: U937 promonocytic cells were treated with an oxidative phosphorylation uncoupler CCCP and Nigericin as described hereinabove.
Cell staining: Cells were stained by treating with Rh123 and loaded in cell chips.
Fluorescence lifetime measurement: Measurements were carried out using polarizers that were set at magic […]. Rh123 was excited by a 488 nm laser line. Fluorescence testing was conducted from 500 nm wavelengths and above (toward the red area).
The results were obtained from an average, encompassing 30 evaluations, with standard deviations recorded accordingly. The outstanding result is the fact that two lifetime groups were obtained, one long—above 4 nanoseconds—and one short—below 3 nanoseconds. In order to determine which region correlates with which lifetime group both the lifetimes and the weights were considered.

U937 cells = assay: Spectroscopic measurements in whole and ruptured cells stained with Rh123; assay type: cell-based
Experimental: There were two main goals to these experiments. The first goal was to ascertain whether a fluorescence intensity decreases in cells treated with CCCP, and similarly, to ascertain whether fluorescence intensity increases in cells treated with Nigericin. The second goal was to learn about the characteristics and amount of influence of the cellular medium on the Rh123 spectroscopic properties.
The cells were stained with Rh123 at a concentration of 3 μM and suspended in PBS, at a cell concentration of 350,000/ml. At this cell concentration, no scattered signal was detected in the fluorescence measurement setup.
The measurement was conducted in CARY spectrofluorometer. The excitation was performed at 480±10 nm and the fluorescence was collected using a 530±10 nm filter. The cell suspension was divided into 4 aliquots in volumes of 2 ml, each. First, the spectrum for all the parts was measured and a comparison was performed to verify equal cell concentration in each quota. Second, parts 3 and 4 were treated with CCCP, while acetone was added to parts 1 and 2, at the same concentration and volume as that in which the CCCP was dissolved, and a spectrum measurement was made. At the end of this process, parts 1 and 3 were ruptured by sonication (VCX 130, Sonics and Materials Inc, Newtown, USA), and parts 2 and 4 were centrifuged and the supernatant was removed to measure the background.
Since there are differences in the emission spectrum of Rh123 in the mitochondria and cytoplasm, the area under the emission graphs must also be calculated in estimating the given spectral effect of CCCP. The area is proportionate to the number of emitting molecules and not to the measured intensity.
Cell preparation and measurement were conducted using the Cary system, and were identical to those with CCCP, except that Nigericin was used for […] the cells.
The overall emission intensity was calculated as above for CCCP to investigate the cause of the fluorescence intensity increase by calculating the area below the emission graph. The columns show average values and standard deviation values of at least two identical experiments. The stars indicate the significant statistical differences before the ANOVA test.

[3] = system: mitochondria of U937 cells; assay: Mitochondrial membrane potential derived from lifetime decay weights with the Nernst equation; assay type: cell-based; details: estimated with the f value, Nernst equation at 300° K, VC/VM≅500, U937 cells treated with CCCP
Description: The following example describes the use of weights ƒ and/or α, decay components, to estimate the probe concentration in the mitochondria and the cytoplasm and from this to derive the membrane potential using the Nernst Equation.
The weight is proportional to the total measured fluorescence signal from an area with a certain fluorescence lifetime. In relying on the results of the measurement, it can be assumed that the decay level in the mitochondria and the cytoplasm is equal and, therefore, is not taken into consideration. In order to convert the weight ratio to concentration ratios, it is necessary to multiply them by the inverted volume ratio, i.e., VC/VM (C-Cytoplasm, M-Mitochondria). Given that this ratio is constant for a certain type of synchronized cells, [data not shown], despite the complex measurement-calculation, it is enough to execute this operation only once.
Considering the Nernst equation at 300° K and the measured fluorescence signal: […]

[4] = Direct influence of CCCP and Nigericin on emission spectrum, polarization and lifetime of Rh123 in suspension
Experimental: A suspension of Rh123 at a concentration of 0.5 μg/ml was prepared. The suspension was divided into three aliquots, each containing a volume of 1 ml. To the first part was added 2.5 μl of PBS. To the second part was added 2.5 μl CCCP at a concentration of 2 mM, so that a final concentration of 5 μM CCCP was reached. To the third part was added 2.5 μl of Nigericin, at a concentration of 2 mg/ml, so that a final concentration of 5 μg/ml Nigericin was reached.
In the first stage, the emission spectrum of the suspension was obtained, using CARY ECLIPSE. The suspensions were excited with 480 nm light and the fluorescence was measured between 500-600 nm, while the slits (emission and excitation) were 2.5 nm.
The direct influence of CCCP and/or Nigericin were tested on the same suspensions of Rh123, measuring the lifetimes in contrast to the control.

[5] = Direct influence of pH on the fluorescence lifetime of Rh123 and NAO; assay type: physicochemical; details: Rh123 5 μg/ml, NAO 10 μM
Experimental: The intra-cellular environment is heterogeneous and multi-phased; therefore, changes may occur in the acidity level in different regions in the cell. Measurements were executed, for this reason, to test if the acidic level has any influence on the fluorescence lifetime of the Rh123. The measurements were conducted in a K2 system, in a suspension of Rh123 with a concentration of 13 μM and the suspension of NAO, in a concentration of 10 μM with an acidity level of 6.0, 7.4 and 8.5.

[6] = Direct influence of viscosity (glycerol) on FLT and FP of Rh123 and NAO; assay type: physicochemical; details: Rh123 5 μg/ml, NAO 10 μM
Experimental: In these tests, the fluorescence lifetime τF was also measured along with the rotational decay time τR. For this, Rh123 (5 μg/ml) and suspension NAO (10 μM) were dissolved in three glycerol suspensions (30%, 60% and 80% v/v) in PBS. Each measurement was performed in triplicate.

Compound	Mean Polarization (U937 promonocytic cells [1])	Mean FP, Left Cell (U937 promonocytic cells [1])	Mean FP, Right Cell (U937 promonocytic cells [1])	f1(weight) (U937 promonocytic cells [2])	α1(decay) (U937 promonocytic cells [2])	τ1(lifetime) (U937 promonocytic cells [2])	f2(weight) (U937 promonocytic cells [2])	α2(decay) (U937 promonocytic cells [2])	τ2(lifetime) (U937 promonocytic cells [2])	fluorescence signal from the probe located in the mitochondria (U937 promonocytic cells [2])	Fluorescence life-time τF ([5]; pH 6.0)	Fluorescence life-time τF ([5]; pH 7.4)	Fluorescence life-time τF ([5]; pH 8.5)	FP ([6]; Glycerin 30% v/v in PBS)	τF ([6]; Glycerin 30% v/v in PBS)	τR (rotational decay time) ([6]; Glycerin 30% v/v in PBS)	FP ([6]; Glycerin 60% v/v in PBS)	τF ([6]; Glycerin 60% v/v in PBS)	τR (rotational decay time) ([6]; Glycerin 60% v/v in PBS)	FP ([6]; Glycerin 80% v/v in PBS)	other results
N#CC(C#N)=NNc1cccc(Cl)c1 [CCCP]	0.346 ± 0.013	0.343 ± 0.034	0.324 ± 0.046	0.867	0.690 ± 0.105	4.27 nsec and 4.271 ± 0.292 nsec	0.133	0.310 ± 0.100	1.475 ± 0.423 nsec	about 30%	–	–	–	–	–	–	–	–	–	–	number of fluorescent molecules (overall emission intensity following cell rupture) (U937 cells; ruptured U937 cells stained with Rh123, with and without CCCP): does not diminish the number of fluorescent molecules; leakage of the probe (background signal of the suspending solution) (U937 cells; supernatant of U937 cells stained with Rh123 following CCCP treatment): causes leakage from the entire cell; emission maximum wavelength of intra-cellular Rh123 following activation of CCCP (U937 cells; whole U937 cells stained with Rh123 3 μM, 534 nm before CCCP): 532 nm; Δψ (mitochondrial membrane potential) [3]: ~−112.84 mV
COC(=O)c1ccccc1-c1c2ccc(=N)cc-2oc2cc(N)ccc12.Cl [Rh123]	–	–	–	–	–	–	–	–	–	–	4.204 ± 0.064 nsec	4.325 ± 0.007 nsec	4.215 ± 0.037 nsec	0.090 ± 0.007	3.861 ± 0.142 nsec	0.460 ± 0.010 nsec	0.200 ± 0.005	3.536 ± 0.018 nsec	2.219 ± 0.006 nsec	0.366 ± 0.010	lifetime of Rh123 in a water suspension (PBS) [4]: ~4.2 nsec; τF ([6]; Glycerin 80% v/v in PBS): 3.500 ± 0.211 nsec; τR (rotational decay time) ([6]; Glycerin 80% v/v in PBS): 8.463 ± 0.047 nsec
CCCCCCCCC[n+]1c2cc(N(C)C)ccc2cc2ccc(N(C)C)cc21.[Br-] [NAO]	–	–	–	–	–	–	–	–	–	–	1.086 ± 0.028 nsec	1.051 ± 0.003 nsec	1.066 ± 0.006 nsec	0.110 ± 0.007	1.599 ± 0.072 nsec	0.923 ± 0.181 nsec	0.179 ± 0.009	2.081 ± 0.056 nsec	1.298 ± 0.057 nsec	0.303 ± 0.004	τF ([6]; Glycerin 80% v/v in PBS): 2.556 ± 0.009 nsec; τR (rotational decay time) ([6]; Glycerin 80% v/v in PBS): 3.888 ± 0.181 nsec
CO[C@@H]1C[C@@H](C[C@H]2CC[C@H](C)[C@H]([C@@H](C)C(=O)O)O2)O[C@]2(O[C@](C)([C@H]3CC[C@@](C)([C@@H]4O[C@@H]([C@H]5O[C@@](O)(CO)[C@H](C)C[C@@H]5C)C[C@@H]4C)O3)C[C@H]2C)[C@@H]1C [Nigericin]	0.258 ± 0.025	0.255 ± 0.057	0.253 ± 0.048	0.330	0.138 ± 0.048	7.735 ± 0.828 nsec	0.670	0.862 ± 0.030	2.519 ± 0.174 nsec	86%	–	–	–	–	–	–	–	–	–	–	polarization values in the mitochondrial areas (U937 promonocytic cells [1]; polarization map of U937 cells stained with Rh123, compared with control): lower; fluorescence signal from the probe found in the cytoplasm (U937 promonocytic cells [2]; weight of the long decay component): 14%; overall emission intensity from a suspension of ruptured cells (U937 cells; U937 cells treated prior to rupture, entire emission range): higher than that received from an untreated cell suspension; overall emission intensity from whole cells (U937 cells; whole U937 cells stained with Rh123, complete emission range): higher than that of untreated cells
